This is an account of results in patent publication US8575214B2, “MGlu 2/3 agonists” (Eli Lilly and Company, priority 2012, dated 2013).

For this data set the following is noted: both, human, pH 7.4. The method, then: Liver S9 fractions are obtained from Xenotech LLC (Lenexa, Mo.). The lot is from a pool of two donors, one male and one female. The liver S9 fraction is prepared and diluted using a homogenization buffer consisting of 50 mM Tris, pH 7.4 at 4° C. and 150 mM potassium chloride without EDTA. Prodrugs are incubated in the liver homogenate for 2 hours at 37° C., after which the concentration of active metabolite is determined by LC/MS/MS. Hydrolysis of Clopidogrel to Clopidogrel Carboxylic Acid is utilized as an assay positive control.
To ensure hydrolysis is not due to chemical instability, prodrugs are also incubated with PBS buffer alone without liver S-9.
A mobile phase gradient is utilized starting mobile phase ratio A/B of 99.9/0.1 and finishing at 1/99.

On to `COC(=O)[C@H](c1ccccc1Cl)N1CCc2sccc2C1` [Clopidogrel], for which the “Hydrolysis of Clopidogrel to Clopidogrel Carboxylic Acid (positive control)” value came out at 73.0%.
